PubChem BioAssay AID588839 (The Scripps Research Institute Molecular Screening Center, 2011)
The source made the active and inactive calls.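 Rule for the calls: active = EC50 at or below 10 µM; inactive = EC50 above 10 µM.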

molecular target: cAMP-dependent protein kinase type I-alpha regulatory subunit (Bos taurus) + cAMP-dependent protein kinase catalytic subunit beta (Mus musculus) (UniProt P00514+P68181); assay: compounds dissociating PKAc from R1A subunit – biochemical, fluorescence polarization, powder samples, late-stage follow-up (AID 588839); conditions: PKA-R1A dissociation, Cy5-IP20 fluorescence polarization

EC50, inactive:
COC(=O)c1sc2ncccc2c1OCc1ccc(Cl)cc1Cl > 100 µM
COC(=O)c1sc2ncccc2c1OCc1ccccc1Cl > 100 µM
Cc1ccc(COc2ccsc2C(=O)O)cc1 > 100 µM
CC(C)(C)c1ccc(COc2ccsc2C(=O)O)cc1 > 100 µM
O=C(O)c1sc2ncccc2c1OCc1ccccc1 > 100 µM
O=C(O)c1sccc1NC(=O)c1c(Cl)cccc1Cl > 100 µM
Cc1csc(C(=O)O)c1NC(=O)c1ccc(F)cc1 > 100 µM
O=C(O)c1sccc1SCc1ccc(Cl)c(Cl)c1 > 100 µM
O=C(O)c1sccc1SCc1ccc(Cl)cc1Cl > 100 µM
